This test concerns LC3 in MOLM-13 cells. In words: Autophagy activation: LC3 Western blot and confocal microscopy. The settings on record: 48 hours in culture. A general note: A western blot detects proteins with antibodies after separation by electrophoresis.

Description: C MOLM-13 cells were treated as in FIG. 1A for 24 or 48 hours. […] D The same cells analysed by Western blot in C were also assessed by confocal microscopy analysis to highlight the LC3 dots (in green); the DNA is highlighted in blue by the Hoechst dye.
After being deposited on a slide via cytospin, the cells were fixed with 4% paraformaldehyde for 7 min, permeabilized with 0.1% TritonX100 in PBS/1% BSA for 5 min and stained with the primary anti-FLT3 (rabbit monoclonal, FLT3 (8F2), #3462, Cell Signaling Technologies, Danvers, MA, USA) or anti-calnexin (CNX, rabbit polyclonal AB22595, AbCam, Cambridge, UK) or anti-calreticulin (CRT, rabbit polyclonal AB2907, AbCam, Cambridge, UK) or anti-LC3 (LC3B Antibody #2775) antibodies, and then with an Alexa Fluor-488 secondary anti-rabbit IgG antibody Molecular Probes, ThermoFisher Scientific, Waltham, MA, USA); the DNA was detected with the TOPRO-3 (Molecular Probes, ThermoFisher Scientific, Waltham, MA, USA) or Hoechst dye (Molecular Probes, ThermoFisher Scientific, Waltham, MA, USA) and the slides were mounted with the Vectashield medium (Vector Laboratories, Burlingame, CA, USA). The images were acquired with a Leica confocal laser scanning microscope TCS SP2 at 40× magnification or with a Zeiss LSM900 at 63× magnification. The images were analysed using the Leica Confocal software (Leica, Milan, Italy) or the Zeiss Zen Blue software. […]

In the case of `CC1=C(/C=C/C(C)=C/C=C/C(C)=C/C(=O)O)C(C)(C)CCC1` [R, all-trans retinoic acid], the “autophagy activation (LC3 activity, LC3-II/LC3-I)” value is listed as “slight increase in LC3 activity”.
